Data on 7 molecules can be found in the supplement of paper PMC11061612.

The subject of assay [1] is LC4-1 (B-Lymphoblastic Leukemia). In words: combination Emax (second highest fraction inhibited in the dose matrix, 72 h); higher = more inhibition; extreme values may be limits of the assay. Summed up:
(§1)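 After 24 hours at 37°C and 5% CO2 in 1536-well plates, cells in DMEM/F12 or RPMI plus 10% FBS received two-drug dose matrices for 72 hours. Viability came from CellTiter-Glo 2.0 luminescence and was scaled as inhibition, anchored at 0 by vehicle wells and at 1 by blank wells. Combination Emax is taken as the second-highest inhibition in the matrix, and Bliss excess as the observed combination effect less EA + EB − EA·EB, with EA and EB the single-agent effects.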

Assay [2] deals with KYSE-150 (Esophageal Squamous Cell Carcinoma). The description is as above. In short, it runs like this:
as §1

Assay [3] has as its system NCI-N87 (Gastric Carcinoma). The description is as above. In short, it runs like this:
as §1

The test system of assay [4] is OCUM-1 (Gastric Carcinoma). Described as above. Summed up: as §1
The test system of assay [5] is NCI-H513 (Other Solid Carcinomas). Described as above. Summed up:
as §1

In assay [6] the test system is ASH-3 (Thyroid Gland Carcinoma). The description is as above. Summed up:
as §1

The subject of assay [7] is H-EMC-SS (Chondrosarcoma). The assay is described as follows: Bliss excess, mean over the matrix (fraction); higher = more synergy. Summed up: as §1
In assay [8] the test system is MFE-319 (Endometrial Carcinoma). Described as above. Summed up:
as §1

Assay [9] concerns NCI-H322M (Lung Adenocarcinoma). Described as above. Summed up:
as §1

Assay [10] deals with BV-173 (Chronic Myelogenous Leukemia). The assay is described as above. In short, it runs like this: as §1
For assay [11], the system named is OCUB-M (Breast Carcinoma). The description is as above. Summed up: as §1
In assay [12] the test system is TGBC11TKB (Gastric Carcinoma). The description is as above. Summed up: as §1
Another assay has as its system EW-18 (Ewing's Sarcoma). The assay is described as above. Summed up: as §1
The subject of assay [13] is JHH-7 (Hepatocellular Carcinoma). Described as above. In short, it runs like this: as §1
Assay [14] deals with VMRC-LCD (Lung Adenocarcinoma). The description is as above. Summed up: as §1
In the next assay the test system is NB7 (Neuroblastoma). The description is as above. Summed up: as §1
In assay [15] the test system is SCC-9 (Oral Cavity Carcinoma). The assay is described as above. In short, it runs like this: as §1
The test system of assay [16] is ASH-3 (Thyroid Gland Carcinoma). The description is as above. Summed up:
as §1
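Throughout, for Bliss excess, mean over the matrix: after 72 h of two-drug dosing.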

For `C=CCn1c(=O)c2cnc(Nc3ccc(N4CCN(C)CC4)cc3)nc2n1-c1cccc(C(C)(C)O)n1` [AZD1775] + O=C(c1cc(Cc2n[nH]c(=O)c3ccccc23)ccc1F)N1CCN(C(=O)C2CC2)CC1 [Olaparib] (first compound max 1 µM, partner max 10 µM), the “combination Emax” value in assay [1] was determined as 0.92; in [2], 0.493; in assay [3] it was 0.711; in assay [4] it was 0.473; in assay [5] it was 0.389; in [6], 0.262. Further, the Bliss excess in assay [7] is -0.0807; in assay [8], -0.0235; in assay [9], -0.0222; in [10] it was 0.0184; in [11], -0.0211; in assay [12] it was -0.0299. For the same molecule, the Bliss excess with EW-18 (Ewing's Sarcoma) is -0.0742; in assay [13] it was -0.0398; in assay [14] it was -0.0597; with NB7 (Neuroblastoma) it was -0.0171; in assay [15] it was -0.0027; in assay [16], -0.0054.

`COc1cccc(OCCCN)c1-c1cc(Nc2cnc(C#N)cn2)n[nH]1` [Prexasertib] + C[C@@H]1COCCN1C2=NC(=NC(=C2)C3(CC3)[S@](=N)(=O)C)C4=C5C=CNC5=NC=C4 [AZD6738] (first compound max 1 µM, 7x7, partner max 10 µM): the “combination Emax” value is 0.984 in assay [1]; 0.621 in assay [2]; 0.718 in assay [3]; 0.813 in [4]; 0.363 in [5]; 0.705 in [6]. Further, the Bliss excess is -0.0013 in assay [7]; -0.0238 in [8]; -0.0367 in assay [9]; -0.0473 in [10]; 0.0421 in [11]; -0.0137 in [12]. The Bliss excess is -0.0548 in the assay with EW-18 (Ewing's Sarcoma); 0.0381 in assay [13]; 0.0201 in assay [14]; -0.0018 with NB7 (Neuroblastoma); 0.0803 in [15]; 0.0902 in assay [16].

`Cc1cc2ncnn2cc1Nc1ncc2c(n1)n(C1CCOCC1)c(=O)n2C` [AZD7648] + C[C@@H]1COCCN1C2=NC(=NC(=C2)C3(CC3)[S@](=N)(=O)C)C4=C5C=CNC5=NC=C4 [AZD6738] (first compound max 10 µM, 7x7, partner max 10 µM): the “combination Emax” value in assay [1] was determined as 0.937; in [2], 0.561; in assay [3] it was 0.718; in assay [4] it was 0.719; in [5] it was 0.31; in assay [6], 0.509. The Bliss excess in assay [7] is 0.0095; in [8], 0.0546; in assay [9], -0.0048; in [10], -0.0194; in [11], 0.0509; in assay [12], 0.0009. The Bliss excess with EW-18 (Ewing's Sarcoma) was -0.0133; in assay [13], 0.0247; in [14], 0.0143; in the assay with NB7 (Neuroblastoma), 0.0143; in assay [15], 0.0507; in [16], 0.0459.

As to `CN(C)CCCOc1ccc(-c2ccc3ncc4c(c3c2)n(C2CCOCC2)c(=O)n4C)cn1` [AZD0156] + C=CCn1c(=O)c2cnc(Nc3ccc(N4CCN(C)CC4)cc3)nc2n1-c1cccc(C(C)(C)O)n1 [AZD1775] (first compound max 1 µM, partner max 1 µM), the “combination Emax” value was determined as 0.916 in [1]; 0.448 in [2]; 0.726 in [3]; 0.548 in [4]; 0.393 in [5]; 0.203 in [6]. Moreover, the Bliss excess is -0.0535 in assay [7]; -0.0706 in assay [8]; -0.0027 in assay [9]; 0.0116 in [10]; -0.0958 in [11]; -0.0482 in [12]. For the same molecule, the Bliss excess in the assay on EW-18 (Ewing's Sarcoma) was -0.0245; in assay [13], -0.0412; in assay [14] it was -0.0399; in the assay with NB7 (Neuroblastoma), -0.0198; in [15] it was -0.036; in assay [16], 0.0012.

Take `CCN(CCO)CCCOc1ccc2c(Nc3cc(CC(=O)Nc4cccc(F)c4)[nH]n3)ncnc2c1` [AZD2811] + C[C@@H]1COCCN1C2=NC(=NC(=C2)C3(CC3)[S@](=N)(=O)C)C4=C5C=CNC5=NC=C4 [AZD6738] (first compound max 1 µM, 7x7, partner max 10 µM): the “combination Emax” value in assay [1] is 0.97; in assay [2], 0.533; in assay [3], 0.744; in [4] it was 0.708; in assay [5] it was 0.283; in [6] it was 0.486. Also, the Bliss excess in assay [7] is -0.0723; in assay [8] it was -0.0472; in assay [9], -0.0484; in assay [10], -0.0537; in assay [11], -0.107; in assay [12], -0.0091. The Bliss excess in the assay on EW-18 (Ewing's Sarcoma) was -0.0831; in assay [13] it was -0.048; in [14], -0.0853; in the assay on NB7 (Neuroblastoma), 0.0084; in [15], -0.0594; in assay [16], -0.0367.

Consider `COc1cccc(OCCCN)c1-c1cc(Nc2cnc(C#N)cn2)n[nH]1` [Prexasertib] + C=CCn1c(=O)c2cnc(Nc3ccc(N4CCN(C)CC4)cc3)nc2n1-c1cccc(C(C)(C)O)n1 [AZD1775] (first compound max 1 µM, partner max 1 µM), for which the “combination Emax” value in [1] is 0.983; in [2] it was 0.866; in [3], 0.797; in assay [4], 0.808; in [5], 0.505; in assay [6], 0.848. The Bliss excess in [7] was 0.0712; in [8], -0.0049; in assay [9] it was 0.0366; in [10], -0.0251; in assay [11] it was 0.232; in [12], 0.0431. Besides, the Bliss excess in the assay on EW-18 (Ewing's Sarcoma) was -0.0615; in [13] it was 0.107; in assay [14], -0.0072; in the assay with NB7 (Neuroblastoma), 0.0708; in assay [15] it was 0.0249; in [16] it was 0.235.

For the molecule `CCN(CCO)CCCOc1ccc2c(Nc3cc(CC(=O)Nc4cccc(F)c4)[nH]n3)ncnc2c1` [AZD2811] + C=CCn1c(=O)c2cnc(Nc3ccc(N4CCN(C)CC4)cc3)nc2n1-c1cccc(C(C)(C)O)n1 [AZD1775] (first compound max 1 µM, partner max 1 µM), the “combination Emax” value in [1] is 0.896; in assay [2], 0.533; in assay [3], 0.66; in assay [4], 0.482; in [5] it was 0.368; in assay [6], 0.103. The Bliss excess is -0.0261 in assay [7]; -0.0361 in assay [8]; -0.0188 in assay [9]; -0.0222 in assay [10]; 0.0312 in assay [11]; 0.0257 in assay [12]. Further, the Bliss excess in the assay with EW-18 (Ewing's Sarcoma) is -0.134; in assay [13], -0.0186; in [14] it was 0.0049; with NB7 (Neuroblastoma), 0.0497; in [15], -0.0179; in assay [16] it was -0.016.
